Experimental data as given in ChEMBL document CHEMBL5543108, “Structure-based design and synthesis of BML284 derivatives: A novel class of colchicine-site noncovalent tubulin degradation agents” (Eur J Med Chem, 2024).
Active and inactive are the calls of the source. No cut-off for these calls is given here.

Tests used:
[1] = system: K562; assay: Antiproliferative activity against human K562 cells assessed as reduction in cell viability measured after 72 hrs; format: functional, cell-based; details: K562, 72 h
[2] = system: MOLM-13; assay: Antiproliferative activity against human MOLM-13 cells assessed as reduction in cell viability measured after 72 hrs; format: functional, cell-based; details: MOLM-13, 72 h
[3] = Selectivity ratio of IC50 for human A2780T cells to IC50 for human A2780S
[4] = Selectivity ratio of IC50 for paclitaxel resistant human A549/Taxol cells to IC50 for human A549
[5] = system: A2780S; assay: Induction of cell cycle arrest in human A2780S cells assessed as accumulation of cells at G0/G1 phase at 10 nM measured after 24 hrs by propidium iodide staining based analysis (reference value: 51.71%); format: functional
[6] = system: A2780S; assay: Induction of cell cycle arrest in human A2780S cells assessed as accumulation of cells at G0/G1 phase at 30 nM measured after 24 hrs by propidium iodide staining based analysis (reference value: 51.71%); format: functional
[7] = system: A2780S; assay: Induction of cell cycle arrest in human A2780S cells assessed as accumulation of cells at G0/G1 phase at 100 nM measured after 24 hrs by propidium iodide staining based analysis (reference value: 51.71%); format: functional
[8] = system: A2780S; assay: Induction of cell cycle arrest in human A2780S cells assessed as accumulation of cells at G2/M phase at 10 nM measured after 24 hrs by propidium iodide staining based analysis (reference value: 18.43%); format: functional
[9] = system: A2780S; assay: Induction of cell cycle arrest in human A2780S cells assessed as accumulation of cells at G2/M phase at 30 nM measured after 24 hrs by propidium iodide staining based analysis (reference value: 18.43%); format: functional
[10] = system: A2780S; assay: Induction of cell cycle arrest in human A2780S cells assessed as accumulation of cells at S phase at 3 nM measured after 24 hrs by propidium iodide staining based analysis (reference value: 29.85%); format: functional
[11] = system: A2780S; assay: Induction of cell cycle arrest in human A2780S cells assessed as accumulation of cells at S phase at 10 nM measured after 24 hrs by propidium iodide staining based analysis (reference value: 29.85%); format: functional
[12] = system: A2780S; assay: Induction of cell cycle arrest in human A2780S cells assessed as accumulation of cells at S phase at 100 nM measured after 24 hrs by propidium iodide staining based analysis (reference value: 29.85%); format: functional
[13] = system: A2780S; assay: Induction of cell cycle arrest in human A2780S cells assessed as accumulation of cells at S phase at 300 nM measured after 24 hrs by propidium iodide staining based analysis (reference value: 29.85%); format: functional
[14] = system: A2780/Taxol; assay: Induction of cell cycle arrest in human A2780T cells assessed as accumulation of cells at G2/M phase at 3 nM measured after 24 hrs by propidium iodide staining based analysis (reference value: 24.13%); format: functional
[15] = system: A2780/Taxol; assay: Induction of cell cycle arrest in human A2780T cells assessed as accumulation of cells at G2/M phase at 30 nM measured after 24 hrs by propidium iodide staining based analysis (reference value: 24.13%); format: functional
[16] = system: A2780/Taxol; assay: Induction of cell cycle arrest in human A2780T cells assessed as accumulation of cells at S phase at 3 nM measured after 24 hrs by propidium iodide staining based analysis (reference value: 29.73%); format: functional
[17] = system: A2780/Taxol; assay: Induction of cell cycle arrest in human A2780T cells assessed as accumulation of cells at S phase at 30 nM measured after 24 hrs by propidium iodide staining based analysis (reference value: 29.73%); format: functional
[18] = system: A2780/Taxol; assay: Induction of cell cycle arrest in human A2780T cells assessed as accumulation of cells at S phase at 100 nM measured after 24 hrs by propidium iodide staining based analysis (reference value: 29.73%); format: functional
[19] = system: A2780/Taxol; assay: Induction of cell cycle arrest in human A2780T cells assessed as accumulation of cells at S phase at 300 nM measured after 24 hrs by propidium iodide staining based analysis (reference value: 29.73%); format: functional
[20] = system: A2780S; assay: Induction of apoptosis in human A2780S cells assessed as total number of late apoptotic cells at 300 nM measured after 48 hrs by Annexin-V-FITC and PI staining based flow cytometry analysis (reference value: 3.42%); format: functional
[21] = system: A2780/Taxol; assay: Induction of apoptosis in human A2780T cells assessed as total number of late apoptotic cells at 30 nM measured after 48 hrs by Annexin-V-FITC and PI staining based flow cytometry analysis (reference value: 3.42%); format: functional
[22] = system: A2780/Taxol; assay: Induction of apoptosis in human A2780T cells assessed as total number of late apoptotic cells at 100 nM measured after 48 hrs by Annexin-V-FITC and PI staining based flow cytometry analysis (reference value: 3.42%); format: functional
[23] = system: A2780/Taxol; assay: Induction of apoptosis in human A2780T cells assessed as total number of late apoptotic cells at 300 nM measured after 48 hrs by Annexin-V-FITC and PI staining based flow cytometry analysis (reference value: 3.42%); format: functional
[24] = system: A2780S; assay: Antitumor activity against human A2780S cells xenografted in mouse model assessed as tumor growth inhibition at 20 mg/kg, iv administered every two days for 12 days relative to control; format: functional; details: 288 h, time 12 day, read-out: TGI
[25] = Toxicity in mouse xenografted with human A2780S cells assessed as effect on body weight at 10 to 30 mg/kg, iv measured upto 12 days; format: organism-based; details: in vivo, 288 h, dose 10-30 mg/kg, time < 12 day
[26] = Toxicity in mouse xenografted with human A2780S cells assessed as side effects at 10 to 30 mg/kg, iv measured upto 12 days; format: organism-based; details: in vivo, 288 h, dose 10-30 mg/kg, time < 12 day
[27] = Toxicity in mouse xenografted with human A2780T cells assessed as side effects at 10 to 30 mg/kg, iv measured upto 18 days; format: organism-based, A2780/Taxol; details: in vivo, 432 h, dose 10-30 mg/kg, time < 18 day
[28] = AUC (0 to t) in male Sprague-Dawley rat at 10 mg/kg, iv; format: ADME, organism-based; details: in vivo
[29] = Bioavailability in male Sprague-Dawley rat at 10 mg/kg, iv; format: ADME, organism-based; details: in vivo
[30] = Tmax in male Sprague-Dawley rat at 10 mg/kg, po; format: ADME, organism-based; details: in vivo
[31] = Clearance in male Sprague-Dawley rat at 10 mg/kg, po; format: ADME, organism-based; details: in vivo
[32] = Cmax in male Sprague-Dawley rat at 10 mg/kg, po; format: ADME, organism-based; details: in vivo
[33] = molecular target: T1, Tubulin (Homo sapiens) (UniProt P68371+Q9H4B7+P0DPH7+P68366+Q13509+Q71U36+P04350+Q3ZCM7+P07437+P68363+Q9BQE3+Q6PEY2+Q13885+Q9BVA1+Q9BUF5); assay: Induction of tubulin degradation in human HeLa cells measured after 24 hrs by immunoblot analysis; format: cell-based; details: dose <= 50.0 µM
[34] = molecular target: T1, Tubulin (Homo sapiens); assay: Induction of tubulin degradation in human HeLa cells at 1 uM measured after 24 hrs by immunoblot analysis; format: cell-based
[35] = molecular target: T1, Tubulin (Homo sapiens); assay: Inhibition of tubulin polymerization (unknown origin) preincubated for 5 mins with compound followed by GTP addition and measured upto 40 mins; format: protein-complex assay; details: dose 5-10 µM, time <= 45.0 min
[36] = system: MCF7; assay: cells; details: Homo sapiens, MCF7, 72 h
Description: Antiproliferative activity against human MCF7 cells assessed as reduction in cell viability measured after 72 hrs

In the case of `COc1cccc(-c2cc(NCc3ccc4[nH]ccc4c3)nc(N)n2)c1`, the IC50 [1] is reported as 30 nM, the IC50 [2] is reported as 20 nM and the “Ratio IC50” value [3] is reported as 0.89. The “Ratio IC50” value [4] was 1.1, the Activity [5] was 48.57% and the Activity [6] was 48.16%. The Activity [7] was 20.38%, the Activity [8] was 22.16% and the Activity [9] was 23.82%. It also gave an Activity [10] of 29.35%, an Activity [11] of 29.27% and an Activity [12] of 37.17%. For the same compound, the Activity [13] was 16.35%, the Activity [14] was 19.35% and the Activity [15] was 20%. For the same compound, the Activity [16] was 29.77%, the Activity [17] was 35.74% and the Activity [18] was 9.12%. For the same compound, the Activity [19] was 11.38%, the Activity [20] was 15.57% and the Activity [21] was 5.29%. It also gave an Activity [22] of 14.43%, an Activity [23] of 15.57% and an inhibition in vivo at 20 mg/kg [24] of 63.6%. The Activity [25] was “Non-Toxic”, the Activity [26] was “Toxic” and the Activity [27] was “Toxic”. The AUC(0-t) [28] was 4270 ng·h/mL, the bioavailability [29] was 10.5% and the Tmax [30] was 3.67 h. For the same compound, the CL/F [31] was 314 mL/min/kg, the Cmax [32] was 77.9 ng/mL and the Activity [33] was “Dose-Dependent Effect”. For the same compound, the Activity [34] was “Active”, the inhibition [35] was “Dose-Dependent Effect” and the IC50 [36] was 20 nM.
